The source of these data is patent US20250122191A1, “COMPOUNDS AS BCL-2 INHIBITORS” (Fochon Biosciences, Ltd, priority 2021, published 2025).

Broadly, the pIC50 is −log10 of the IC50, conventionally taken in molar units.

pIC50: −log10 of the molar value.

In this experiment the test system is RS4;11-BCL-2 G101V cells. Description: Cell proliferation assay (MTS), RS4;11-BCL-2 G101V engineered cells. Type of experiment: cell-based. Particulars: Homo sapiens, 120 h, read-out: RS4, 11 BCL2-G101V IC50. The source says:
MTS testing kit was purchased from Promega (Madison, WI, USA). The RPMI-1640, Fetal bovine serum and Penicillin-Streptomycin were purchased from BI (Biological Industries, Beit Haemek, Israel). Puromycin was purchased from Beyotime (shanghai, China). Dimethyl sulfoxide (DMSO) was purchased from Sigma (St. Louis., MO, USA). RS4;11-BCL-2 G101V (Cobioer Lot. #: CBD2021063013P4), RS4;11-BCL-2 D103E (Cobioer Lot. #: CBD2021063013P4), RS4;11-BCL-2 D103Y (Cobioer Lot. #: CBD2022012101P4) and RS4;11-BCL-2 F104L (Cobioer Lot. #: CBD2021063014P4) cells were cultured in RPMI1640 supplemented with 1 ug/mL puromycin, 100 U/mL Penicillin-Streptomycin and 10% FBS.
To investigate whether a compound is able to inhibit the activity of BCL-2 mutation in cells, a mechanism-based assay using engineered cell lines stably overexpressing BCL-2 mutation (RS4;11-BCL-2 G101V, RS4;11-BCL-2 D103E, RS4;11-BCL-2 D103Y, and RS4;11-BCL-2 F104L) was developed. In this assay, the inhibition of BCL-2 mutation was reflected by the inhibition of cell proliferation of engineered RS4;11 cells. Cells were plated into 96-well plates at optimized cell density (RS4;11-BCL-2 G101V: 5000 cells/well; RS4;11-BCL-2 D103E: 7500 cells/well; RS4;11-BCL-2 D103Y: 7500 cells/well; RS4;11-BCL-2 F104L: 5000 cells/well). Plates were incubated at 37° C., with 5% CO2 for 4 h (RS4;11-BCL-2 G101V, RS4;11-BCL-2 F104L) and 24 h (RS4;11-BCL-2 D103E, RS4;11-BCL-2 D103Y), respectively. Compounds were serially diluted and added to the plates with the final concentrations of 10000, 3333.3, 1111.1, 370.4, 123.5, 41.2, 13.7, 4.6 and 1.5 nM. Plates were incubated at 37° C., with 5% CO2 for 120 h (RS4; 11-BCL-2 G101V, RS4; 11-BCL-2 F104L) and 72 h (RS4;11-BCL-2 D103E, RS4;11-BCL-2 D103Y), respectively. 20 μl MTS was added into each well and the plates were incubated at 37° C., with 5% CO2 exactly for 2 h. The absorbance was measured by a microplate reader at 490 nm. IC50 values were calculated using GraphPad Prism 8.0 software.
On to `COc1nc2[nH]cc(F)c2cc1Oc1cc(N2CCC3(CC2)CC(N2CCN(C4CCC(O)CC4)C[C@H]2c2ccccc2C(C)C)C3)ccc1C(=O)NS(=O)(=O)c1cnc(NC[C@H]2CC[C@](C)(O)CC2)c([N+](=O)[O-])c1` (single isomer, unassigned) [Example 332], for which the pIC50 was 9.00. In the case of `COc1ccc(CN2CCN(C3CC4(CCN(c5ccc(C(=O)NS(=O)(=O)c6cnc(NC[C@H]7CC[C@](C)(O)CC7)c([N+](=O)[O-])c6)c(Oc6cc7c(F)c[nH]c7nc6OC)c5)CC4)C3)[C@H](c3ccccc3C3CC3)C2)cc1` [Example 52, 4-(2-((R)-2-(2-cyclopropylphenyl)-4-(4-methoxybenzyl)piperazin-1-yl)-7-azaspiro[3.5]nonan-7-yl)-2-((3-fluoro-6-methoxy-1H-pyrrolo[2,3-b]pyridin-5-yl)oxy)-N-((6-((((1r,4r)-4-hydroxy-4-methylcyclohexyl)methyl)amino)-5-nitropyridin-3-yl)sulfonyl)benzamide] it was 9.00. With `COc1nc2[nH]cc(F)c2cc1Oc1cc(N2CCC3(CC2)CC(N2CCN(Cc4ccnc(N)c4)C[C@H]2c2ccccc2C(C)C)C3)ccc1C(=O)NS(=O)(=O)c1cnc(NC[C@H]2CC[C@](C)(O)CC2)c([N+](=O)[O-])c1` [Example 70, 4-(2-((R)-4-((2-aminopyridin-4-yl)methyl)-2-(2-isopropylphenyl)piperazin-1-yl)-7-azaspiro[3.5]nonan-7-yl)-2-((3-fluoro-6-methoxy-1H-pyrrolo[2,3-b]pyridin-5-yl)oxy)-N-((6-((((1r,4r)-4-hydroxy-4-methylcyclohexyl)methyl)amino)-5-nitropyridin-3-yl)sulfonyl)benzamide] the figure was 9.00. With `CCOc1nc2[nH]cc(F)c2cc1Oc1cc(N2CCC3(CC2)CC(N2CCN(Cc4ccc(OC)cc4F)C[C@H]2c2ccccc2C(C)C)C3)ccc1C(=O)NS(=O)(=O)c1cnc(NC[C@H]2CC[C@](C)(O)CC2)c([N+](=O)[O-])c1` [Example 106, 2-((6-ethoxy-3-fluoro-1H-pyrrolo[2,3-b]pyridin-5-yl)oxy)-4-(2-((R)-4-(2-fluoro-4-methoxybenzyl)-2-(2-isopropylphenyl)piperazin-1-yl)-7-azaspiro[3.5]nonan-7-yl)-N-((6-((((1r,4r)-4-hydroxy-4-methylcyclohexyl)methyl)amino)-5-nitropyridin-3-yl)sulfonyl)benzamide] the figure was 9.00. Take `COc1nc2[nH]cc(F)c2cc1Oc1cc(N2CCC3(CC2)CC(N2CCN(C4COC4)C[C@H]2c2ccccc2C(C)C)C3)ccc1C(=O)NS(=O)(=O)c1cnc(NC[C@H]2CC[C@](C)(O)CC2)c([N+](=O)[O-])c1` [Example 131, 2-((3-fluoro-6-methoxy-1H-pyrrolo[2,3-b]pyridin-5-yl)oxy)-N-((6-((((1r,4r)-4-hydroxy-4-methylcyclohexyl)methyl)amino)-5-nitropyridin-3-yl)sulfonyl)-4-(2-((R)-2-(2-isopropylphenyl)-4-(oxetan-3-yl)piperazin-1-yl)-7-azaspiro[3.5]nonan-7-yl)benzamide]: the negative logarithm of the IC50 (pIC50) is 9.00. In the case of `COc1nc2[nH]cc(F)c2cc1Oc1cc(N2CCC3(CC2)CC(N2CCN(C)C[C@H]2c2ccccc2C(C)C)C3)ccc1C(=O)NS(=O)(=O)c1cnc(NC[C@H]2CC[C@](C)(O)CC2)c([N+](=O)[O-])c1` [Example 137, 2-((3-fluoro-6-methoxy-1H-pyrrolo[2,3-b]pyridin-5-yl)oxy)-N-((6-((((1r,4r)-4-hydroxy-4-methylcyclohexyl)methyl)amino)-5-nitropyridin-3-yl)sulfonyl)-4-(2-((R)-2-(2-isopropylphenyl)-4-methylpiperazin-1-yl)-7-azaspiro[3.5]nonan-7-yl)benzamide] it was 9.00; in that of `CC(C)c1ccccc1[C@@H]1CN(C)CCN1C1CC2(CCN(c3ccc(C(=O)NS(=O)(=O)c4cnc(NC[C@H]5CC[C@](C)(O)CC5)c([N+](=O)[O-])c4)c(Oc4cnc5[nH]cc(F)c5c4)c3)CC2)C1` [Example 139, 2-((3-fluoro-1H-pyrrolo[2,3-b]pyridin-5-yl)oxy)-N-((6-((((1r,4r)-4-hydroxy-4-methylcyclohexyl)methyl)amino)-5-nitropyridin-3-yl)sulfonyl)-4-(2-((R)-2-(2-isopropylphenyl)-4-methylpiperazin-1-yl)-7-azaspiro[3.5]nonan-7-yl)benzamide], 9.00. In the case of `COc1nc2[nH]cc(F)c2cc1Oc1cc(N2CCC3(CC2)CC(N2CCN(C4CC4)C[C@H]2c2ccccc2C(C)C)C3)ccc1C(=O)NS(=O)(=O)c1cnc(NC[C@H]2CC[C@](C)(O)CC2)c([N+](=O)[O-])c1` [Example 143, 4-(2-((R)-4-cyclopropyl-2-(2-isopropylphenyl)piperazin-1-yl)-7-azaspiro[3.5]nonan-7-yl)-2-((3-fluoro-6-methoxy-1H-pyrrolo[2,3-b]pyridin-5-yl)oxy)-N-((6-((((1r,4r)-4-hydroxy-4-methylcyclohexyl)methyl)amino)-5-nitropyridin-3-yl)sulfonyl)benzamide] it was 9.00; in that of `CC(C)c1ccccc1[C@@H]1CN(C2CC2)CCN1C1CC2(CCN(c3ccc(C(=O)NS(=O)(=O)c4cnc(NC[C@H]5CC[C@](C)(O)CC5)c([N+](=O)[O-])c4)c(Oc4cnc5[nH]cc(F)c5c4)c3)CC2)C1` [Example 145, 4-(2-((R)-4-cyclopropyl-2-(2-isopropylphenyl)piperazin-1-yl)-7-azaspiro[3.5]nonan-7-yl)-2-((3-fluoro-1H-pyrrolo[2,3-b]pyridin-5-yl)oxy)-N-((6-((((1r,4r)-4-hydroxy-4-methylcyclohexyl)methyl)amino)-5-nitropyridin-3-yl)sulfonyl)benzamide], 9.00; in that of `CC(C)c1ccccc1[C@@H]1CN(C2COC2)CCN1C1CC2(CCN(c3ccc(C(=O)NS(=O)(=O)c4cnc(NC[C@H]5CC[C@](C)(O)CC5)c([N+](=O)[O-])c4)c(Oc4cnc5[nH]cc(F)c5c4)c3)CC2)C1` [Example 205, 2-((3-fluoro-1H-pyrrolo[2,3-b]pyridin-5-yl)oxy)-N-((6-((((1r,4r)-4-hydroxy-4-methylcyclohexyl)methyl)amino)-5-nitropyridin-3-yl)sulfonyl)-4-(2-((R)-2-(2-isopropylphenyl)-4-(oxetan-3-yl)piperazin-1-yl)-7-azaspiro[3.5]nonan-7-yl)benzamide], 9.00. Regarding `COc1nc2[nH]cc(F)c2cc1Oc1cc(N2CCC3(CC2)CC(N2CCN(Cc4ccc(C#N)cc4)C[C@H]2c2ccccc2C(C)C)C3)ccc1C(=O)NS(=O)(=O)c1cnc(NC[C@H]2CC[C@](C)(O)CC2)c([N+](=O)[O-])c1` [Example 236, 4-(2-((R)-4-(4-cyanobenzyl)-2-(2-isopropylphenyl)piperazin-1-yl)-7-azaspiro[3.5]nonan-7-yl)-2-((3-fluoro-6-methoxy-1H-pyrrolo[2,3-b]pyridin-5-yl)oxy)-N-((6-((((1r,4r)-4-hydroxy-4-methylcyclohexyl)methyl)amino)-5-nitropyridin-3-yl)sulfonyl)benzamide], the pIC50 is 9.00.

For the compound `CCOc1nc2[nH]cc(F)c2cc1Oc1cc(N2CCC3(CC2)CC(N2CCN(Cc4ccc(OC)c5oc(C)nc45)C[C@H]2c2ccccc2C(C)C)C3)ccc1C(=O)NS(=O)(=O)c1cnc(NC[C@H]2CC[C@](C)(O)CC2)c([N+](=O)[O-])c1` [Example 246, 2-((6-ethoxy-3-fluoro-1H-pyrrolo[2,3-b]pyridin-5-yl)oxy)-N-((6-((((1r,4r)-4-hydroxy-4-methylcyclohexyl)methyl)amino)-5-nitropyridin-3-yl)sulfonyl)-4-(2-((R)-2-(2-isopropylphenyl)-4-((7-methoxy-2-methylbenzo[d]oxazol-4-yl)methyl)piperazin-1-yl)-7-azaspiro[3.5]nonan-7-yl)benzamide], the pIC50 was 8.70. In the case of `COc1cc(CN2CCN(C3CC4(CCN(c5ccc(C(=O)NS(=O)(=O)c6cnc(NC[C@H]7CC[C@](C)(O)CC7)c([N+](=O)[O-])c6)c(Oc6cnc7[nH]cc(F)c7c6)c5)CC4)C3)[C@H](c3ccccc3C(C)C)C2)ncc1C1CC1` [Example 251, 4-(2-((R)-4-((5-cyclopropyl-4-methoxypyridin-2-yl)methyl)-2-(2-isopropylphenyl)piperazin-1-yl)-7-azaspiro [3.5]nonan-7-yl)-2-((3-fluoro-1H-pyrrolo[2,3-b]pyridin-5-yl)oxy)-N-((6-((((1r,4r)-4-hydroxy-4-methylcyclohexyl)methyl)amino)-5-nitropyridin-3-yl)sulfonyl)benzamide] it was 9.00.
